This assay deals with T1, yeast's α-glucosidase.
T1 construct: gene MAL12; yeast enzyme
Put plainly: colorimetric α-glucosidase inhibition assay. As to conditions: standard drug; substrate and buffer only in supplement. It counts as biochemical, Saccharomyces cerevisiae. An excerpt: colorimetric α-glucosidase inhibition assay on yeast's α-glucosidase

Structures are written as SMILES.

Take `C[C@H]1O[C@H](O[C@H]2[C@H](O)[C@@H](O)[C@@H](O[C@H]3[C@H](O)[C@@H](O)C(O)O[C@@H]3CO)O[C@@H]2CO)[C@H](O)[C@@H](O)[C@@H]1N[C@H]1C=C(CO)[C@@H](O)[C@H](O)[C@H]1O` (stereo partly shown) [Acarbose]: the “Enzyme Inhibition IC50” value is 160.15 ± 27.52 µg/mL.

For the origin of these results see publication PMC10728852, “In Vitro and In Vivo Antidiabetic, α-Glucosidase Inhibition and Antibacterial Activities of Three Brown Algae, Polycladia myrica, Padina antillarum, and Sargassum boveanum, and a Red Alga, Palisada perforata from the Persian Gulf” (Iranian Journal of Pharmaceutical Research : IJPR, 2023).
